Earlier results, collected in publication PMC8309005, “Novel Non-Congeneric Derivatives of the Choline Kinase Alpha Inhibitor ICL-CCIC-0019” (Pharmaceutics, 2021).

Experiments:
HT-29 = system: HT-29; parameters: method as in ref 20, 21 (MN58B), 23 (RSM-932A); conditions: 21 (MN58B), 23 (RSM-932A); cited from earlier work
MCF-7 = system: MCF-7; parameters: method as in PMID 12678804, PMID 10397253; conditions: cited from earlier work
CHKA = system: CHKA; parameters: method as in ref 18, 25 (HC-3), 20, 21 (MN58B), 23 (RSM-932A); conditions: CHKA inhibitors of Figure 1; 25 (HC-3), 20, 21 (MN58B), 23 (RSM-932A); cited from earlier work
HeLa = system: HeLa; parameters: method as in ref 20, 21 (MN58B), 23 (RSM-932A); conditions: 21 (MN58B), 23 (RSM-932A); cited from earlier work
A431 = system: A431; parameters: method as in PMID 12678804, PMID 10397253; conditions: cited from earlier work
HepG2 = system: HepG2; parameters: method as in PMID 25487918; conditions: cited from earlier work

| SMILES | GI50 (HT-29) [nM] | GI50 (MCF-7) [nM] | IC50 (CHKA) [nM] | GI50 (HeLa) [nM] | GI50 (A431) [nM] | GI50 (HepG2) [nM] |
| --- | --- | --- | --- | --- | --- | --- |
| CN(C)c1cc[n+](Cc2ccc(CCCCc3ccc(C[n+]4ccc(N(C)C)cc4)cc3)cc2)cc1 [MN58B] | 1400 | 600 | 1400 | 1200 | 2100 | – |
| C/[N+](c1ccc(Cl)cc1)=c1\ccn(Cc2ccc(-c3ccc(Cn4cc/c(=[N+](/C)c5ccc(Cl)cc5)c5ccccc54)cc3)cc2)c2ccccc12 [RSM-932A] | 1300 | – | 1000 | 1000 | – | 1300 |
